Consider 32 molecules from ChEMBL document CHEMBL1201862, “PubChem BioAssay data set” (2004).

Structures are written as SMILES.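 The compound was tested at five concentrations on cells cultured in 96-well plates, with a 48-hour exposure period. GI50 is the concentration that inhibits growth by half.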 Active and inactive are the calls of the source. Rule as the data show it: active = GI50 up to about 1.1 µM and inactive = higher. Bounds are passed on as bounds.

Test systems include KM-20L2; SNB-78; M19-MEL; MDA-MB-231; MDA-MB-435; 786-0; MCF7; MDA-N; RXF 631.
Common to all, as to assay: inhibition of tumour cell growth, NCI panel, 48 h

Take `COc1cccc(C2C(C(=O)O)=C(CO)Oc3cc4c(cc32)OCO4)c1` (centres undefined): the GI50 in the test on KM-20L2, with SNB-78 and with M19-MEL was > 100 µM (inactive) throughout.

As for `CN(C)c1ccc(/C=C/C(=O)N[C@@H]2C(=O)N3[C@@H]2SC(C)(C)[C@@H]3C(=O)O)cc1`, the GI50 in the test on MDA-MB-231, with MDA-MB-435, in the test on 786-0, in the test with MCF7 and with MDA-N was > 100 µM (inactive) in each case.

For `COc1cccc(/C=C/C(=O)N2CC(CCl)c3c2cc(N)c2ccccc32)c1` (centres undefined), the GI50 in the test with MDA-MB-231 is 0.0039 µM (active); in the test on MDA-MB-435, 0.00319 µM (active); in the test on 786-0, 0.00106 µM (active); in the test on MCF7 it was 0.000238 µM (active); with MDA-N, 0.0143 µM (active).

Consider `CC(=O)/N=C1/N(/C=C2\C(=O)Oc3ccccc3C2=O)C(=O)/C(=C/c2ccc(NC(C)=O)cc2)N1C`, for which the GI50 in the test with MDA-MB-231, in the test on MDA-MB-435, in the test on 786-0, in the test on MCF7 and with MDA-N was > 100 µM (inactive) each time.

For `CC(C)(C)OC(=O)NC1CCCC1=O` (centres undefined), the GI50 with 786-0, with RXF 631, with KM-20L2, in the test with SNB-78 and with M19-MEL was > 100 µM (inactive) throughout.

For the molecule `O=C(Nc1cccc2ccccc12)Nn1cnnc1`, the GI50 in the test with MDA-MB-435, with MCF7 and in the test with MDA-N was > 100 µM (inactive) in each case.

With `Cc1nc2[nH]ncn2c(=O)c1CCO`, the GI50 in the test on MDA-MB-231, in the test with MDA-MB-435, with MCF7 and with MDA-N was > 10 µM (inactive) throughout.

Regarding `CCCCN1CSC(=S)N(Cc2ccccc2)C1`, the GI50 with MDA-MB-231 was > 100 µM (inactive); with MDA-MB-435, 38.2 µM (inactive); with 786-0, 34.4 µM (inactive); in the test on MCF7, 31.3 µM (inactive); with MDA-N, 37.6 µM (inactive).

On to `CN(NC(=O)c1cccs1)C1=NCCCN1`, for which the GI50 in the test with MDA-MB-231, in the test with MDA-MB-435, with 786-0, in the test on MCF7 and in the test on MDA-N was > 100 µM (inactive) throughout.

`Nc1nnc(CCC(=O)Nc2cc(Cl)ccc2Cl)n1N`: the GI50 in the test on RXF 631, with KM-20L2, in the test with SNB-78 and in the test with M19-MEL was > 100 µM (inactive) each time.

`CCOC(=O)/C(=C/c1cn(C(C)=O)c2ccccc12)P(=O)(OC)OC`: the figures for the GI50 in the test with MDA-MB-231, in the test with MDA-MB-435 and in the test on MCF7 were 43.8 µM (inactive), 36.4 µM (inactive) and < 0.01 µM (active), respectively.

Take `CCOc1c(/N=N/c2ccccc2Cl)c(-c2ccccc2)nn1C(=S)S`: the GI50 with MDA-MB-231 is 15.7 µM (inactive); in the test with MDA-MB-435 it was 29 µM (inactive); in the test on 786-0, 37.4 µM (inactive); in the test with MCF7 it was 37.8 µM (inactive).

On to `C=CS(=O)(=O)CCN1CC1`, for which the GI50 in the test with MDA-MB-231, in the test on MDA-MB-435, in the test on 786-0, with MCF7 and in the test on MDA-N was > 10 µM (inactive) each time.

Regarding `Cc1c(N(Cc2ccccc2)Cc2ccccc2)nc(S(C)(=O)=O)nc1S(C)(=O)=O`, the GI50 in the test on KM-20L2 is 1.74 µM (inactive); with SNB-78, 2.2 µM (inactive); in the test with M19-MEL it was 1.54 µM (inactive).

With `COC(=O)C(C(=O)C(=O)Nc1ccc(C)cc1C)c1csc(-n2nc(-c3ccccc3)cc2-c2ccccc2)n1` (centres undefined), the GI50 with 786-0 was > 100 µM (inactive); in the test on RXF 631, > 100 µM (inactive); in the test with KM-20L2, 57.5 µM (inactive); in the test with SNB-78 it was > 100 µM (inactive); in the test on M19-MEL, > 100 µM (inactive).

In the case of `C=C1c2nc3ccccc3n2C=C(c2ccccc2)N1c1ccc([N+](=O)[O-])cc1`, the GI50 in the test with MDA-MB-231 is 2.39 µM (inactive); with MDA-MB-435, 5.61 µM (inactive); in the test on 786-0 it was 0.855 µM (active); in the test with MCF7, 3.61 µM (inactive); in the test with MDA-N it was 7.6 µM (inactive).

For the molecule `O=C(O)/C(=C\c1ccncc1)c1cccc2ccccc12`, the GI50 in the test on MDA-MB-231, with MDA-MB-435, with 786-0 and in the test on MDA-N was > 100 µM (inactive) throughout.

On to `C=C1C(=O)O[C@@H]2[C@H]3O[C@]3(C)CCC=C(C)CC[C@@H]12`, for which the GI50 is 24.8 µM (inactive) in the test on KM-20L2, 16.4 µM (inactive) in the test on MCF7, 18.2 µM (inactive) with SNB-78 and 14.3 µM (inactive) in the test on M19-MEL.

Turning to `CC(C)(C)C(=O)OCC1OC(N=[N+]=[N-])C(OC(=O)C(C)(C)C)C(OC(=O)C(C)(C)C)C1OC(=O)C(C)(C)C` (centres undefined), the GI50 in the test with KM-20L2 and with SNB-78 was > 100 µM (inactive) in each case.

As for `Cc1ccc(S(=O)(=O)N2CCCSCC2)cc1`, the GI50 is > 100 µM (inactive) with MDA-MB-231, 95.7 µM (inactive) in the test with MDA-MB-435, > 100 µM (inactive) with MCF7 and > 100 µM (inactive) in the test with MDA-N.

As to `N=C(NNS(=O)(=O)c1ccccc1)Oc1ccc(Cl)cc1`, the GI50 with 786-0 was 44.3 µM (inactive); in the test with KM-20L2 it was > 100 µM (inactive); in the test with SNB-78, > 100 µM (inactive); with M19-MEL it was > 100 µM (inactive).

As for `CCN1C(=O)c2cc(OC)c(OC)cc2C(=O)C12OC(=O)c1cc3c(cc12)OCO3` (centres undefined), the GI50 is 41.4 µM (inactive) with MDA-MB-231; > 100 µM (inactive) with MDA-MB-435; 22.4 µM (inactive) in the test with 786-0; 78.9 µM (inactive) with MCF7; > 100 µM (inactive) with MDA-N.

Consider `CCc1c(-c2ccccc2)[nH]c2ccccc2c1=O`, for which the GI50 with MDA-MB-231 was 70.6 µM (inactive); with MDA-MB-435, 46.2 µM (inactive); in the test with MCF7, 57.1 µM (inactive); with MDA-N, 47.5 µM (inactive).

Take `CC(C)(Br)C1(O)CCCN1C(=O)c1ccccc1` (centres undefined): the GI50 in the test on RXF 631, in the test on KM-20L2, in the test with SNB-78 and with M19-MEL was > 100 µM (inactive) in each case.

On to `CCCCNC1=C2C(=O)NN=C2CO1`, for which the GI50 with RXF 631, with KM-20L2, in the test on SNB-78 and in the test with M19-MEL was > 100 µM (inactive) throughout.

For `O=C(NNC(=O)c1nsc2ccccc12)c1ccc(Cl)cc1`, the GI50 is 19.8 µM (inactive) in the test with KM-20L2, 24.8 µM (inactive) in the test with SNB-78 and 20 µM (inactive) with M19-MEL.

With `Brc1cccc(Nc2ncnc3sc4c(c23)CCC(Nc2cccc(Br)c2)C4)c1` (centres undefined), the GI50 was > 100 µM (inactive) in the test with MDA-MB-231; > 100 µM (inactive) in the test with MDA-MB-435; > 100 µM (inactive) in the test with 786-0; 83.8 µM (inactive) with MCF7; > 100 µM (inactive) in the test with MDA-N.

As for `CCCn1cc2c3c(cccc31)C1C=C(C)CN(C)C1C2` (centres undefined), the GI50 with KM-20L2 is 13 µM (inactive); in the test on MCF7 it was 9.71 µM (inactive); in the test on SNB-78, 30.3 µM (inactive).

For the molecule `COC[C@@H](Cc1ccc(OC)c(OC)c1)[C@@H](COC)Cc1ccc(OC)c(OC)c1`, the GI50 in the test with KM-20L2, in the test with SNB-78 and in the test on M19-MEL was > 100 µM (inactive) in each case.

With `CN(C)/N=N/c1ccc([N+](=O)[O-])cc1C(N)=O`, the GI50 in the test with KM-20L2, in the test on MCF7, in the test on SNB-78 and in the test with M19-MEL was > 100 µM (inactive) each time.

In the case of `Cc1cc2oc3c(ccc(=O)n3C)c(=O)c2c(C)c1Cl`, the GI50 is 31.8 µM (inactive) in the test with MDA-MB-231, 28.1 µM (inactive) in the test on MDA-MB-435 and 52.8 µM (inactive) in the test on MDA-N.

With `C/C(=N/NS(=O)(=O)c1ccc([N+](=O)[O-])cc1)c1cccc[n+]1[O-]`, the GI50 in the test on 786-0, with KM-20L2, with SNB-78 and in the test on M19-MEL was > 100 µM (inactive) in each case.
